Laboratory results: patent publication US7759486B2, “2,4,5-Trisubstituted pyrimidine compounds” (GlaxoSmithKline LLC, priority 2000, dated 2010)

biological target: T1, CSBP/p38 (Homo sapiens, UniProt Q16539); assay: CSBP/p38 Kinase Assay (32P transfer from ATP to EGFR-derived T669 peptide); format: biochemical; details: yeast-expressed, activated and purified p38, 0.17 mM ATP, 25 min at 37° C., read-out: IC50, positive inhibitory activity in this binding assay
T1 construct: made in house; host or cells: yeast
Procedure: Assay: Test compound concentrations were prepared at 10× concentrations and LPS prepared at […] (final conc. of 50 ng/ml LPS) and added in 50 uL volumes to 1.5 mL eppendorf tubes. Heparinized human whole blood was obtained from healthy volunteers and was dispensed into eppendorf tubes containing compounds and LPS in 0.4 mL volumes and the tubes incubated at 37 C. Following a 4 hour incubation, the tubes were centrifuged at 5000 rpm for 5 minutes in a TOMY microfuge, plasma was withdrawn and frozen at −80 C. Cytokine measurement: IL-1 and/or TNF were quantified using a standardized ELISA technology. An in-house ELISA kit was used to detect human IL-1 and TNF. Concentrations of IL-1 or TNF were determined from standard curves of the appropriate cytokine and IC50 values for test compound (concentration that inhibited 50% of LPS-stimulated cytokine production) were calculated by linear regression analysis. CSBP/p38 Kinase Assay:
This assay measures the CSBP/p38-catalyzed transfer of ^32P from […] to threonine residue in an epidermal growth factor receptor (EGFR)-derived peptide (T669) with the following sequence: […] (SEQ ID No. 1) (residues 661-681). […]
Reactions were carried in round bottom 96 well plate (from Corning) in a 30 ml volume. […] Filters were washed with 75 mM phosphoric acids, and incorporated 32P was quantified using beta scintillation counter. […]

T1 sequence (Q16539 whole entry): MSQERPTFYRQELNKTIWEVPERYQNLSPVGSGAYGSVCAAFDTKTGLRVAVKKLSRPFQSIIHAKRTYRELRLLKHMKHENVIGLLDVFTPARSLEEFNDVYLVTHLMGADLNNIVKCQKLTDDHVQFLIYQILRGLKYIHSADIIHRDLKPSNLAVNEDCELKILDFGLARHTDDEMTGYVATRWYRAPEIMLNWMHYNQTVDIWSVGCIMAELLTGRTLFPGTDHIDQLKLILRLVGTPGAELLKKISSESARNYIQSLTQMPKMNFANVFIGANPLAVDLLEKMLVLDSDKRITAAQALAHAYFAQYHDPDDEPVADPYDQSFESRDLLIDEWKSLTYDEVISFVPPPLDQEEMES

Compound | IC50
CSc1nc(Oc2ccccc2)c2ccc(=O)n(-c3ccccc3Cl)c2n1 [Example 111, 8-(2-Chloro-phenyl)-2-methylsulfanyl-4-phenoxy-8H-pyrido[2,3-d]pyrimidin-7-one] | < 10 µM

tested on: not given; assay: not given; details: not given

Compound | melting point
Cc1cc(F)ccc1-c1nc(NCCNC(=O)c2ccccc2)nc2c1ccc(=O)n2-c1c(F)cccc1F [Example 163, 8-(2,6-Difluorophenyl)-4-(4-fluoro-2-methylphenyl)-2-[N-(2-aminoethyl)-3-benzamido]-8H-pyrido[2,3-d]pyrimidin-7-one] | 246 to 248 °C
Cc1cc(F)ccc1-c1nc(Nc2c[nH]c(=O)[nH]c2=O)nc2c1ccc(=O)n2-c1c(F)cccc1F [Example 168, 8-(2,6-Difluorophenyl)-4-(4-fluoro-2-methylphenyl)-2-(N-aminouracil-5-yl)-8H-pyrido[2,3-d]pyrimidin-7-one] | > 300 °C
Cc1cc(F)ccc1-c1nc(NCC(=O)O)nc2c1ccc(=O)n2-c1c(F)cccc1F [Example 191, N-[8-(2,6-Difluorophenyl)-4-(4-fluoro-2-methylphenyl)-7,8-dihydro-7-oxopyrido[2,3-d]pyrimidin-2-yl]glycine] | 260 to 261 °C
CCNC(=O)CNc1nc(-c2ccc(F)cc2C)c2ccc(=O)n(-c3c(F)cccc3F)c2n1 [Example 192] | 250 to 253 °C (dec.)

Other lines, results leading:

melting point | Compound
214 to 216 °C | CCC(=O)NCCNc1nc(-c2ccc(F)cc2C)c2ccc(=O)n(-c3c(F)cccc3F)c2n1 [Example 165]
111 to 133 °C | Cc1cc(F)ccc1-c1nc(NCCNC(=O)C(C)(C)C)nc2c1ccc(=O)n2-c1c(F)cccc1F [Example 166]
106 to 119 °C | Cc1cc(F)ccc1-c1nc(NCCNC(=O)OC(C)(C)C)nc2c1ccc(=O)n2-c1c(F)cccc1F [Example 167]
105 to 115 °C (dec.) | Cc1cc(F)ccc1-c1nc(NCCNS(C)(=O)=O)nc2c1ccc(=O)n2-c1c(F)cccc1F [Example 189, N-[2-[[8-(2,6-Difluorophenyl)-4-(4-fluoro-2-methylphenyl)-7,8-d hydro-7-oxopyrido[2,3-d]pyrimidin-2-yl]amino]ethyl]methanesulfonamide]
212 to 213 °C | COC(=O)CNc1nc(-c2ccc(F)cc2C)c2ccc(=O)n(-c3c(F)cccc3F)c2n1 [Example 190, Methyl N-[8-(2,6-difluorophenyl)-4-(4-fluoro-2-methylphenyl)-7,8-dihydro-7-oxopyrido[2,3-d]pyrimidin-2-yl] glycinate]
